# According to ChEMBL document CHEMBL1138508, “Design, synthesis, and pharmacological effects of a cyclization-activated steroid prodrug for colon targeting in inflammatory bowel disease” (J Med Chem, 2009):
# Activity calls are given as the source filed them. The calls are words filed in the database; no cut-off is given here.
# Experiments:
# [1] = Stability assessed as half life at pH 2.6 by HPLC; format: physicochemical; conditions: buffer
# [2] = Stability assessed as half life at pH 7.4 by HPLC; format: physicochemical; conditions: buffer
# [3] = Stability assessed as half life at pH 4 by HPLC; format: physicochemical; conditions: buffer
# [4] = Stability assessed as half life at pH 8 by HPLC; format: physicochemical; conditions: buffer
# Mus musculus [5] = assay: Toxicity in dextran sodium sulfate treated po dosed BALB/c mouse ulcerative colitis model assessed as reduction in thymus weight to body weight ratio administered twice daily for 6 days relative to control; format: organism-based; conditions: in vivo, 144 h
# Mus musculus [6] = assay: Inhibition of dextran sodium sulfate-induced ulcerative colitis in po dosed BALB/c mouse assessed as decrease in body weight loss administered twice daily for 6 days relative to control; format: functional, organism-based
# Mus musculus [7] = assay: Inhibition of dextran sodium sulfate-induced ulcerative colitis in po dosed BALB/c mouse assessed as decrease in colon shortening administered twice daily for 6 days relative to control; format: functional, organism-based
# Mus musculus [8] = assay: Inhibition of dextran sodium sulfate-induced ulcerative colitis in po dosed BALB/c mouse assessed as decrease in disease activity index administered twice daily for 6 days relative to control; format: functional, organism-based
# [9] = Apparent permeability from basolateral to apical side in human Caco-2 cells by HPLC; format: ADME, cell-based
# [10] = Stability at pH 8 to 9 after 24 hrs; format: physicochemical; conditions: buffer, pH 8, 24 h
# Mus musculus [11] = assay: Inhibition of dextran sodium sulfate-induced ulcerative colitis in BALB/c mouse assessed as decrease in body weight loss at 5 mg/kg, po twice daily for 6 days relative to control; format: functional, organism-based; design: dose 5 mg/kg
# Mus musculus [12] = assay: Inhibition of dextran sodium sulfate-induced ulcerative colitis in BALB/c mouse assessed as decrease in disease activity index at 5 mg/kg, po twice daily for 6 days relative to control; format: functional, organism-based; design: dose 5 mg/kg
# [13] = Stability in human gastric juice after 24 hrs; format: ADME, tissue-based
# Mus musculus [14] = assay: Inhibition of dextran sodium sulfate-induced ulcerative colitis in BALB/c mouse assessed as decrease in colon shortening at 5 mg/kg, po twice daily for 6 days relative to control; format: functional, organism-based; design: dose 5 mg/kg
# Mus musculus [15] = assay: Toxicity in dextran sodium sulfate treated BALB/c mouse ulcerative colitis model assessed as reduction in thymus weight to body weight ratio at 5 mg/kg, po administered twice daily for 6 days relative to control; format: organism-based; design: dose 5 mg/kg, route oral; conditions: in vivo, 144 h
# [16] = Stability at pH 3.4 to 7.4 after 24 hrs; format: physicochemical; conditions: buffer, pH 3.4, 24 h
# [17] = Chemical stability assessed as half life at neutrality pH; format: physicochemical
smiles,measurement,setting,value
C[C@]12CCC(=O)C=C1CC[C@@H]1[C@@H]2[C@@H](O)C[C@@]2(C)[C@H]1CC[C@]2(O)C(=O)COC(=O)CCc1ccccc1N,half-life,[1],54 min
same,half-life,[2],73 min
same,half-life,[3],30 min
same,half-life,[4],44 min
C[C@]12C=CC(=O)C=C1CC[C@@H]1[C@@H]2[C@@H](O)C[C@@]2(C)[C@H]1CC[C@]2(O)C(=O)CO [PREDNISOLONE],Activity,Mus musculus [5],Toxic
same,Activity,Mus musculus [6],Active
same,Activity,Mus musculus [7],Active
same,Activity,Mus musculus [8],Active
C[C@]12C=CC(=O)C=C1CC[C@@H]1[C@@H]2[C@@H](O)C[C@@]2(C)[C@H]1CC[C@]2(O)C(=O)COC(=O)CCc1ccccc1/N=N/c1ccc(O)c(C(=O)O)c1,Papp B→A,[9],14 ×10⁻⁶ cm/s
same,Stability,[10],Unstable
same,Activity,Mus musculus [11],Active
same,Activity,Mus musculus [12],Active
same,Stability,[13],Stable
same,Activity,Mus musculus [14],Active
same,Activity,Mus musculus [15],Non-toxic
same,Stability,[16],Stable
C[C@]12C=CC(=O)C=C1CC[C@@H]1[C@@H]2[C@@H](O)C[C@@]2(C)[C@H]1CC[C@]2(O)C(=O)COC(=O)Cc1ccccc1/N=N/c1ccc(O)c(C(=O)O)c1,Activity,Mus musculus [11],inactive
same,Activity,Mus musculus [12],inactive
same,Activity,Mus musculus [14],inactive
same,Activity,Mus musculus [15],Non-toxic
COC(=O)CCc1ccccc1N,half-life,[17],57 min
